Converted amounts (≈) assume the structure as drawn.
Assays:
Assay type in all cases: functional
[1] = test system: Staphylococcus epidermidis; test: Antibacterial activity against Staphylococcus epidermidis ATCC 12228 assessed as inhibition of bacterial growth incubated for 18 to 24 hrs by CLSI protocol based Tryptic soy broth method; settings: time 18-24 hrs
Staphylococcus aureus [2] = test: Antibacterial activity against methicillin-resistant Staphylococcus aureus assessed as inhibition of bacterial growth incubated for 18 to 24 hrs by CLSI protocol based Tryptic soy broth method; settings: time 18-24 hrs
Staphylococcus aureus [3] = test: Antibacterial activity against Staphylococcus aureus ATCC 25923 assessed as inhibition of bacterial growth incubated for 18 to 24 hrs by CLSI protocol based Tryptic soy broth method; settings: time 18-24 hrs
Enterococcus faecalis [4] = test: Antibacterial activity against Enterococcus faecalis ATCC 29212 assessed as inhibition of bacterial growth incubated for 18 to 24 hrs by CLSI protocol based Tryptic soy broth method; settings: time 18-24 hrs
Staphylococcus aureus [5] = test: Antibacterial activity against methicillin-resistant Staphylococcus aureus assessed as inhibition of bacterial growth by CLSI protocol based method
Enterococcus = test: Antibacterial activity against vancomycin-resistant Enterococcus assessed as inhibition of bacterial growth by CLSI protocol based method
Staphylococcus aureus [6] = test: Antibacterial activity against Staphylococcus aureus ATCC 29213 assessed as inhibition of bacterial growth by CLSI protocol based method
Bacillus subtilis = test: Antibacterial activity against Bacillus subtilis NCIM 2097 assessed as inhibition of bacterial growth incubated for 24 hrs by serial broth dilution method
Staphylococcus aureus [7] = test: Antibacterial activity against Staphylococcus aureus NCIM 5257 assessed as inhibition of bacterial growth incubated for 24 hrs by serial broth dilution method
Pseudomonas aeruginosa = test: Antibacterial activity against Pseudomonas aeruginosa NCIM 5210 assessed as inhibition of bacterial growth incubated for 24 hrs by serial dilution method
Klebsiella pneumoniae = test: Antibacterial activity against Klebsiella pneumoniae NCIM 5289 assessed as inhibition of bacterial growth incubated for 24 hrs by serial dilution method
Enterococcus faecalis [8] = test: Antibacterial activity against Streptococcus faecalis NCIM 2080 assessed as inhibition of bacterial growth incubated for 24 hrs by serial dilution method
Escherichia coli [9] = test: Antibacterial activity against Escherichia coli NCIM 2065 assessed as inhibition of bacterial growth incubated for 24 hrs by serial dilution method
Candida albicans = test: Antifungal activity against Candida albicans assessed as inhibition of fungal growth incubated measured per 100 uL incubated for 24 hrs by agar well diffusion method
Escherichia coli [10] = test: Antibacterial activity against Escherichia coli assessed as inhibition of bacterial growth measured per 100 uL incubated for 24 hrs by agar well diffusion method

SMILES | MIC [1] [µg/mL] | MIC (Staphylococcus aureus [2]) [µg/mL] | MIC (Staphylococcus aureus [3]) [µg/mL] | MIC (Enterococcus faecalis [4]) [µg/mL] | also measured
Cc1nc(C)c(COc2ccc(N3C[C@H](CNC(=O)c4ccco4)OC3=O)cc2F)nc1C | 16 (≈ 35.2 µM) | 32 (≈ 70.4 µM) | 32 (≈ 70.4 µM) | 128 (≈ 282 µM) | –
CC(=O)NC[C@H]1CN(c2ccc(N3CCN(/N=C/c4ccc([N+](=O)[O-])cc4)CC3)c(F)c2)C(=O)O1 | – | – | – | – | MIC (Staphylococcus aureus [5]): 4 µg/mL (≈ 8.26 µM); MIC (Enterococcus): 4 µg/mL (≈ 8.26 µM); MIC (Staphylococcus aureus [6]): 4 µg/mL (≈ 8.26 µM)
COCC(=O)NC[C@H]1CN(c2ccc(OCc3nc(C)c(C)nc3C)cc2)C(=O)O1 | 128 (≈ 309 µM) | 64 (≈ 154 µM) | > 128 | > 128 | –
O=C(/C=C/c1ccc(Cl)cc1)c1ccc(-c2ccc(N3C[C@H](CO)OC3=O)cc2)cc1 | – | – | – | – | MIC (Bacillus subtilis): 3.12 µg/mL (≈ 7.2 µM); MIC (Staphylococcus aureus [7]): 3.12 µg/mL (≈ 7.2 µM); MIC (Pseudomonas aeruginosa): 3.12 µg/mL (≈ 7.2 µM); MIC (Klebsiella pneumoniae): 3.12 µg/mL (≈ 7.2 µM); MIC (Enterococcus faecalis [8]): 3.12 µg/mL (≈ 7.2 µM); MIC (Escherichia coli [9]): 3.12 µg/mL (≈ 7.2 µM)
CC(=O)NC[C@H]1CN(c2ccc(N3CCN(/N=C(\C)Cn4c([N+](=O)[O-])cnc4C)CC3)c(F)c2)C(=O)O1 | – | – | – | – | MIC (Staphylococcus aureus [5]): 1 µg/mL (≈ 1.94 µM); MIC (Enterococcus): 4 µg/mL (≈ 7.74 µM); MIC (Staphylococcus aureus [6]): 1 µg/mL (≈ 1.94 µM)
CC(=O)NC[C@H]1CN(c2ccc(N3CCN(/N=C/Cn4c([N+](=O)[O-])cnc4C)CC3)c(F)c2)C(=O)O1 | – | – | – | – | MIC (Staphylococcus aureus [5]): 1 µg/mL (≈ 1.99 µM); MIC (Enterococcus): 4 µg/mL (≈ 7.96 µM); MIC (Staphylococcus aureus [6]): 1 µg/mL (≈ 1.99 µM)
CC(=O)NC[C@H]1CN(c2ccc(N3CCOCC3)c(F)c2)C(=O)O1 [LINEZOLID] | – | – | – | – | MIC (Enterococcus): 2 µg/mL (≈ 5.93 µM)
COc1ccc(/C=C/C(=O)c2ccc(-c3ccc(N4C[C@H](CO)OC4=O)cc3)cc2)cc1 | – | – | – | – | MIC (Bacillus subtilis): 3.12 µg/mL (≈ 7.28 µM); MIC (Staphylococcus aureus [7]): 3.12 µg/mL (≈ 7.28 µM); MIC (Pseudomonas aeruginosa): 3.12 µg/mL (≈ 7.28 µM); MIC (Klebsiella pneumoniae): 3.12 µg/mL (≈ 7.28 µM); MIC (Enterococcus faecalis [8]): 3.12 µg/mL (≈ 7.28 µM); MIC (Escherichia coli [9]): 3.12 µg/mL (≈ 7.28 µM)
Cc1nc(C)c(COc2ccc(N3C[C@H](CNC(=O)C(Cl)Cl)OC3=O)cc2)nc1C | 8 (≈ 17.6 µM) | 4 (≈ 8.82 µM) | 8 (≈ 17.6 µM) | 16 (≈ 35.3 µM) | –
CC(=O)NC[C@H]1CN(c2ccc(OCc3nc(C)c(C)nc3C)c(F)c2)C(=O)O1 | 4 (≈ 9.94 µM) | 4 (≈ 9.94 µM) | 8 (≈ 19.9 µM) | 16 (≈ 39.8 µM) | –
COCC(=O)NC[C@H]1CN(c2ccc(OCc3nc(C)c(C)nc3C)c(F)c2)C(=O)O1 | 32 (≈ 74 µM) | 32 (≈ 74 µM) | 128 (≈ 296 µM) | 128 (≈ 296 µM) | –
CCCCc1cn(C[C@H]2CN(c3ccc(OCc4nc(C)c(C)nc4C)c(F)c3)C(=O)O2)nn1 | > 128 | > 128 | > 128 | > 128 | –
Cc1nc(C)c(COc2ccc(N3C[C@H](CNC(=O)c4ccco4)OC3=O)cc2)nc1C | 64 (≈ 147 µM) | 64 (≈ 147 µM) | 128 (≈ 293 µM) | > 128 | –
Cc1nc(C)c(COc2ccc(N3C[C@H](CNC(=O)CCl)OC3=O)cc2F)nc1C | 4 (≈ 9.16 µM) | 2 (≈ 4.58 µM) | 8 (≈ 18.3 µM) | 8 (≈ 18.3 µM) | –
Cc1nc(C)c(COc2ccc(N3C[C@H](CNC(=O)C(Cl)Cl)OC3=O)cc2F)nc1C | 4 (≈ 8.49 µM) | 2 (≈ 4.24 µM) | 4 (≈ 8.49 µM) | 8 (≈ 17 µM) | –
CC(=O)NC[C@H]1CN(c2ccc(N3CCN(/N=C/c4c(Cl)cccc4[N+](=O)[O-])CC3)c(F)c2)C(=O)O1 | – | – | – | – | MIC (Staphylococcus aureus [5]): 8 µg/mL (≈ 15.4 µM); MIC (Enterococcus): 8 µg/mL (≈ 15.4 µM); MIC (Staphylococcus aureus [6]): 8 µg/mL (≈ 15.4 µM)
O=C(/C=C/c1ccc([N+](=O)[O-])cc1)c1ccc(-c2ccc(N3C[C@H](CO)OC3=O)cc2)cc1 | – | – | – | – | MIC (Bacillus subtilis): 3.12 µg/mL (≈ 7.03 µM); MIC (Staphylococcus aureus [7]): 3.12 µg/mL (≈ 7.03 µM); MIC (Pseudomonas aeruginosa): 3.12 µg/mL (≈ 7.03 µM); MIC (Klebsiella pneumoniae): 3.12 µg/mL (≈ 7.03 µM); MIC (Enterococcus faecalis [8]): 3.12 µg/mL (≈ 7.03 µM); MIC (Escherichia coli [9]): 3.12 µg/mL (≈ 7.03 µM)
C[C@@H]1[C@H](O)[C@@H](C)/C=C/C=C/C=C/C=C/C=C/C=C/C=C/[C@H](O[C@@H]2O[C@H](C)[C@@H](O)[C@H](N)[C@@H]2O)C[C@@H]2O[C@](O)(C[C@@H](O)C[C@@H](O)[C@H](O)CC[C@@H](O)C[C@@H](O)CC(=O)O[C@H]1C)C[C@H](O)[C@H]2C(=O)O [AMPHOTERICIN B] | – | – | – | – | MIC (Candida albicans): 6.25 µg; MIC (Escherichia coli [10]): 6.25 µg
